Target: T1, Androgen receptor (Homo sapiens, UniProt P10275)
T1 sequence (P10275 whole entry): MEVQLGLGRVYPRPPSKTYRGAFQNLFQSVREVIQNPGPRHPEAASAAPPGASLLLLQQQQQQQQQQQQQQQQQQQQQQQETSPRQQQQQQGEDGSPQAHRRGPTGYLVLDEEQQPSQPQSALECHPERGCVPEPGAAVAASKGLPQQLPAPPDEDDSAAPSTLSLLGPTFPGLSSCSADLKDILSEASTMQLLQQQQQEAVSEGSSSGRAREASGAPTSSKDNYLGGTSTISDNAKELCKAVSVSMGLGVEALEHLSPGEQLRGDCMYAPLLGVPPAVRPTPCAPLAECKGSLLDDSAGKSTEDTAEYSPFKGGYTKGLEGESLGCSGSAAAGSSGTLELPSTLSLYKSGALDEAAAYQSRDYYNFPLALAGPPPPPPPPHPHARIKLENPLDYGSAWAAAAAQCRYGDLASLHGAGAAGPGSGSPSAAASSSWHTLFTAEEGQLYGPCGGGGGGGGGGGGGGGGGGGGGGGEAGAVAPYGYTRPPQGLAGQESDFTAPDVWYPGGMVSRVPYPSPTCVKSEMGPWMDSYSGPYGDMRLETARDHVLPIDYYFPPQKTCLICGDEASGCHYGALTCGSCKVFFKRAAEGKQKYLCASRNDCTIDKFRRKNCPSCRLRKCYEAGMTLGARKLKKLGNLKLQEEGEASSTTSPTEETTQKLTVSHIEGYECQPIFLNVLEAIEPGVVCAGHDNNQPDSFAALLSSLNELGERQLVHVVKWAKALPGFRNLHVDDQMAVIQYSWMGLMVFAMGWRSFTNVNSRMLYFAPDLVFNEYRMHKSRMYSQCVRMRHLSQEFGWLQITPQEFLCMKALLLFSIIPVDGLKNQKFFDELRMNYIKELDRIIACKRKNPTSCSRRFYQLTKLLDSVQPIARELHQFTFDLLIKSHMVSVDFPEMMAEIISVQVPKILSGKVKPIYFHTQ
Assay: Inhibition of androgen dependent human prostate cancer cell […] proliferation

Structure (SMILES)	IC50
Oc1c2c(c(O)n1-c1ccc(Cl)c(Cl)c1)C1C=CC2C1 [(2R,6S)-4-(3,4-Dichloro-phenyl)-4-aza-tricyclo[5.2.1.0*2,6*]dec-8-ene-3,5-dione]	180 nM
CN1C(=O)C2C=CC1c1c2c(O)n(-c2ccc([N+](=O)[O-])c3ccccc23)c1O [(2R,6R)-8-Methyl-4-(4-nitro-naphthalen-1-yl)-4,8-diaza-tricyclo[5.2.2.0*2,6*]undec-10-ene-3,5,9-trione]	8460 nM

More lines, in order of falling IC50, values ahead:

IC50	Structure (SMILES)
179 nM	Oc1c2c(c(O)n1-c1cccc(C(F)(F)F)c1)C1CCCC2CC1 [(2S,6R)-4-(3-Trifluoromethyl-phenyl)-4-aza-tricyclo[5.3.2.0*2,6*]dodecane-3,5-dione]
148 nM	Oc1c2c(c(O)n1-c1cccc(C(F)(F)F)c1)C1C=CC2[C@H]2C[C@@H]12 [(2R,6S,8S,10R)-4-[3-(trifluoromethyl)phenyl]-4-azatetracyclo[5.3.2.0^{2,6}.0^{8,10}]dodec-11-ene-3,5-dione]
0.4 nM	Oc1c2c(c(O)n1-c1cccc(C(F)(F)F)c1)C1C=CC2CC1 [(2R,6S)-4-(3-Trifluoromethyl-phenyl)-4-aza-tricyclo[5.2.2.0*2,6*]undec-8-ene-3,5-dione]

— BindingDB's records for doi:10.1016/j.bmcl.2004.10.085 (Bristol-Myers Squibb Pharmaceutical Research Institute, 2004)
